Structures are written as SMILES. pIC50, pKi: −log10 of the molar value.

Bcl-2-like protein 1, sequence (Q07817 whole entry): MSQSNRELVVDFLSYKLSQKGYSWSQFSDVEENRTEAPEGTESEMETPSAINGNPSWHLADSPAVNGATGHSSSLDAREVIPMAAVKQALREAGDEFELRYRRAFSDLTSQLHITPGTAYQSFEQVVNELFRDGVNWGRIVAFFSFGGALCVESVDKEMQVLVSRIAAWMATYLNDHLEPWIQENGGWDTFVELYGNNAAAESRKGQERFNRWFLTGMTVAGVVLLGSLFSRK

The assay concerns the target Bcl-2-like protein 1 (Homo sapiens, UniProt Q07817). The experiment in a line: Inhibition of GST-tagged Bcl-xL (unknown origin) measured after 1 hr incubation by fluorescence polarization assay.
For orientation: pIC50 means the negative decadic logarithm of the IC50, by convention in mol/L. Low values mean a large IC50, high ones a small IC50. In the case of `CN(C)CC[C@H](CSc1ccccc1)Nc1ccc(S(=O)(=O)NC(=O)c2ccc(N3CCN(Cc4cccc(-c5ccccc5)c4)CC3)cc2)cc1[N+](=O)[O-]`, the pIC50 is 7.96.

Broadly, the pKi is the negative decadic logarithm of the Ki, by convention in mol/L. Low values mean a high Ki, high ones a low Ki. In turn, `O=C(O)c1ccccc1C(=O)c1ccc(Sc2ccc(Cl)cc2)c([N+](=O)[O-])c1` showed a pKi of 6.30.

Turning to `CN(C)CC[C@H](CSc1ccccc1)Nc1ccc(S(=O)(=O)Nc2ncnc3cc(N4CCN(Cc5ccccc5-c5ccc(Cl)cc5)CC4)ccc23)cc1[N+](=O)[O-]`, the negative logarithm of the IC50 (pIC50) is 8.52.

`CCCN(C(=O)N[C@@H](CSCC(C)C)C(=O)O)C(=O)c1cccc(C#Cc2ccc(F)cc2F)c1` showed a pIC50 of 4.66.

The compound `CCCN(C(=O)N[C@@H](CSCc1ccc(Br)cc1)C(=O)O)C(=O)c1cccc(C#Cc2ccc(F)cc2F)c1` showed a pIC50 of 4.89.

Take `O=C(O)c1cccc(-c2ccc3c(c2)/C(=N/Nc2nc4ccccc4s2)CCC3)n1`: the pIC50 is 7.68. This pIC50 is 2.79 log units higher than that of the compound before.

`CC(C)C(C(=O)O)N1C(=O)/C(=C/c2ccc(Br)cc2)SC1=S` (centres undefined) gave a pKi of 5.62.

Take `Cc1c(C(=O)O)c(-c2cccc(N3CCN(c4ccc(NS(=O)(=O)c5ccc(NC(CCN(C)C)CSc6ccccc6)c([N+](=O)[O-])c5)cc4)CC3)c2)c(-c2ccc(Cl)cc2)n1C` (centres undefined): the pIC50 is 8.22.

`Cc1cc2c(C(C)C)c(O)c(O)c(C=O)c2c(O)c1-c1c(C)cc2c(C(C)C)c(O)c(O)c(C=O)c2c1O` [GOSSYPOL] gave a pKi of 6.00.

The values are drawn from ChEMBL document CHEMBL3399933, “A combination of in silico and SAR studies to identify binding hot spots of Bcl-xL inhibitors” (Bioorg Med Chem, 2015).
